Each structure is given as a SMILES string. In brackets after ≈: the same amount, converted by molar mass. Structures can show the parent of a compound that is named as a salt. Where two headings read alike, the source gives them in different places. Bounds are passed on as bounds.

This note sets out measurements from US20180037595A1, “BENZOXABOROLE COMPOUNDS AND USES THEREOF” (GLAXOSMITHKLINE INTELLECTUAL PROPERTY (NO.2) LIMITED, priority 2015, published 2018).

Assay [1] relates to M. tuberculosis standard strain Mtb H37Rv. Description: MIC determination against mycobacteria (resazurin microtiter assay). The format is cell-based, Mycobacterium tuberculosis. The conditions noted are these: for MIC: Mycobacterium tuberculosis, H37RV, read-out: Mtb H37Rv MIC (B); for Selectivity Index (A/B): HepG2 cell 48 h Tox50 (A) / Mtb H37Rv MIC (B).
Assay [2] concerns the target Mtb LeuRS (Mycobacterium tuberculosis, UniProt P9WFV1). Kind of assay: LeuRS aminoacylation assay, IC50 determination. The format is biochemical, M. tuberculosis. As to conditions: read-out: Mtb LeuRS IC50. The protocol: For biochemical analyses an N-terminal six histidine-tagged LeuRS was over-expressed in Escherichia coli which were E. coli codon-optimised (GenScript, Piscataway N.J., USA), from human mitochondria and cytoplasm, and M. tuberculosis. N-terminal six histidine-tagged LeuRS proteins were over-expressed and purified according to Novagen (Madison, Wis., USA) using an E. coli BL21(DE3) T7 RNA polymerase over-expression strain.
Experiments were performed in 96-well microtiter plates, using 80 μL reaction mixtures containing 50 mM HEPES-KOH (pH 8.0), 30 mM MgCl2 30 mM KCl, 13 μM L-[^14C]leucine (306 mCi/mmol, Perkin-Elmer), 15 uM total E. coli tRNA (Roche, Switzerland), 0.02% (w/v) BSA, 1 mM DTT, 0.2 μM LeuRS and 4 mM ATP at 30° C. Reactions were started by the addition of 4 mM ATP. After 7 minutes, reactions were quenched and tRNA was precipitated by the addition of 50 μL of 10% (w/v) TCA and transferred to 96-well nitrocellulose membrane filter plates (Millipore Multiscreen HTS, MSHAN4B50). Each well was then washed three times with 100 μL of 5% TCA. Filter plates were then dried under a heat lamp and the precipitated L-[^14C]leucine tRNALeu were quantified by liquid scintillation counting using a Wallac MicroBeta Trilux model 1450 liquid scintillation counter (PerkinElmer, Waltham, Mass., USA). The only difference was with the human cytoplasmic LeuRS when we used tRNA isolated from Brewer's Yeast (Roche Diagnostics GmbH).
Reactions were initiated by the addition of 4 mM ATP. Reactions were stopped after 7 minutes then precipitated and counted to quantify radioactivity. IC50 values were determined using the Graphpad Prism software package (Graphpad Software Inc. (La Jolla, Calif., USA).

Assay [3] concerns HepG2 cells. Kind of assay: HepG2 cytotoxicity assay (resazurin). The format is cell-based.
The test system of assay [4] is P. aeruginosa PA01. Kind of assay: General antimicrobial activity assay (CLSI broth microdilution). The format is cell-based. The conditions noted are these: Pseudomonas aeruginosa, PA01, read-out: MIC: P. aeruginosa PA01. The protocol:
(§1) Whole-cell antimicrobial activity was determined by broth microdilution using the Clinical and Laboratory Standards Institute (CLSI) recommended procedure, Document M7-A7, “Methods for Dilution Susceptibility Tests for Bacteria that Grow Aerobically”.

The test system of assay [5] is E. coli K12. The description is as above. The format is cell-based. The conditions noted are these: Escherichia coli, K12, read-out: MIC: E. coli K12. The procedure:
as §1

The test system of assay [6] is E. coli K12 tolC::Tn10. The description is as above. The format is cell-based. As to conditions: Escherichia coli, read-out: MIC: E. coli K12 tolC::Tn10. The protocol:
as §1

In assay [7] the test system is A. baumannii ATCC 17978. The description is as above. The format is cell-based. The conditions noted are these: Acinetobacter baumannii, ATCC17978, read-out: MIC: A. baumannii ATCC 17978. The protocol: as §1
In assay [8] the target is Human cyto LeuRS (Homo sapiens, UniProt Q9P2J5). Description: LeuRS aminoacylation assay, IC50 determination. The format is biochemical.
Human cyto LeuRS, sequence (Q9P2J5 whole entry): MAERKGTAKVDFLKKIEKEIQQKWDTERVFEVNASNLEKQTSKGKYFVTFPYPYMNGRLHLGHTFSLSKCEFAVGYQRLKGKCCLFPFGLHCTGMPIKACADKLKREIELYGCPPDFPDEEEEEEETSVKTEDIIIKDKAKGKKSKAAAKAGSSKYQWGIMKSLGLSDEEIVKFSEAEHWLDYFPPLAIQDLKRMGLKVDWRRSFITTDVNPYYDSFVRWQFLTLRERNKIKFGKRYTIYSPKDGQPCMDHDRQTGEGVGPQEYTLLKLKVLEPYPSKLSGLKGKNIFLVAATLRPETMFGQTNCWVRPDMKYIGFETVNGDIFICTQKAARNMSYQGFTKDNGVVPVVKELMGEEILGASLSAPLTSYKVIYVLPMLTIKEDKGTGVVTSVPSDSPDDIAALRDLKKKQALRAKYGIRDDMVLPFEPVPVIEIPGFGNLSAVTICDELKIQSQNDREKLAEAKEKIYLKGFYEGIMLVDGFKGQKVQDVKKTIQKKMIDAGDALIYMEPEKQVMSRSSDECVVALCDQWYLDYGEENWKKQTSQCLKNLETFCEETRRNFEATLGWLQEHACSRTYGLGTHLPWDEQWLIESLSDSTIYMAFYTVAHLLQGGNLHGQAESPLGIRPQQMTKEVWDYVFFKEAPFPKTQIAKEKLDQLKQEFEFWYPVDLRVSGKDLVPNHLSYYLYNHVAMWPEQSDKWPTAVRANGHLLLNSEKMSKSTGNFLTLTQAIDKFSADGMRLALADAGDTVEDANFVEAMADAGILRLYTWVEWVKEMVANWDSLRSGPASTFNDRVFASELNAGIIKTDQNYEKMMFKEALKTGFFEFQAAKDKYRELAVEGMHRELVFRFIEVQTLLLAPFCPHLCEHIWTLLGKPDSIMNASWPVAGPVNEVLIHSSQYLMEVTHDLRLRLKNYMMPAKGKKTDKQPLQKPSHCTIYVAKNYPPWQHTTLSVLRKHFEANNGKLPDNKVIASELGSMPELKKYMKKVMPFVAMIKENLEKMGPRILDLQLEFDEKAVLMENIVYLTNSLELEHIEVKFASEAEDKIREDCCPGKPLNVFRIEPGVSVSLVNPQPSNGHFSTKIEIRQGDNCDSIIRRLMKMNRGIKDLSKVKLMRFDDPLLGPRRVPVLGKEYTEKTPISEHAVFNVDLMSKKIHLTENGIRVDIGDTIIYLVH
Setting [9] is: Homo sapiens, HepG2, 48 h, read-out: HepG2 cell 48 h Tox50 (A).

Mtb LeuRS, sequence (P9WFV1 whole entry): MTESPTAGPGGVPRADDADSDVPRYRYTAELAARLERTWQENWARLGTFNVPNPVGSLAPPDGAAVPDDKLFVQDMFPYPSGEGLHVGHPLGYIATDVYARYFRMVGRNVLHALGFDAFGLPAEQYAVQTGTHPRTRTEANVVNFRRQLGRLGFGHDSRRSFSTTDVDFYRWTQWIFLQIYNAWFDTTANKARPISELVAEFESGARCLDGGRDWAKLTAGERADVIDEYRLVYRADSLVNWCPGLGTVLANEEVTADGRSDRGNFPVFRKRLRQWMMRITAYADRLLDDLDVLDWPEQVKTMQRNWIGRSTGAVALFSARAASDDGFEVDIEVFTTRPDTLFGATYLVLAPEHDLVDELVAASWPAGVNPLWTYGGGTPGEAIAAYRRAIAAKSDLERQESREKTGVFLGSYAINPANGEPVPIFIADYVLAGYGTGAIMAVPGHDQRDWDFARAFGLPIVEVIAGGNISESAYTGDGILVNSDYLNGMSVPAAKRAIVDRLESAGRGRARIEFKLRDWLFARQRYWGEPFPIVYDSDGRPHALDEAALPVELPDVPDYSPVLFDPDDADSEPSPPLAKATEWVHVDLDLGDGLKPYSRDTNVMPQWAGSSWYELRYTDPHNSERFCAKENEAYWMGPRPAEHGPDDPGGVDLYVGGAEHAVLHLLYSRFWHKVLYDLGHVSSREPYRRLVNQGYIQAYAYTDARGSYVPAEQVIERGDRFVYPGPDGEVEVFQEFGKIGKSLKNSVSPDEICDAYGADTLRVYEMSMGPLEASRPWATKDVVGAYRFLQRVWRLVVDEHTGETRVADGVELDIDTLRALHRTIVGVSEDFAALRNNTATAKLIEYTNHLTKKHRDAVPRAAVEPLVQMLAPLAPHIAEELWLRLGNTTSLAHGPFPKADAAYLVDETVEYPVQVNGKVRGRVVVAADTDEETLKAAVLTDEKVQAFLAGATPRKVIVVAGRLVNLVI

As to `Cl.NCC1OB2OCCOc3ccc(Br)c1c32` (racemic) [Example 1, 3-bromo-7,8-dihydro-2H-1,6,9-trioxa-9a-borabenzo[cd]azulen-2-yl)methanamine hydrochloride], the MIC in assay [1] worked out at 0.18 µM. The IC50 in assay [2] is 0.154 µM; in assay [3] (setting [9]), over 50 µM.

Take `Cl.NCC1OB2OCCOc3ccc(Br)c1c32` (racemic) [Example 1]: the MIC in assay [4], in assay [5], in assay [6] and in assay [7] was over 64 µg/mL throughout. Moreover, the “Selectivity Index (A/B)” value in assay [1] (listed as EXAMPLE 1 G1-Br, hydrochloride) is over 277; in assay [1] (listed as Example 1 G1-Br, hydrochloride) it was over 277.

Turning to `Cl.NCC1OB2OCCOc3ccc(Cl)c1c32` (racemic) [Example 3, 3-chloro-7,8-dihydro-2H-1,6,9-trioxa-9a-borabenzo[cd]azulen-2-yl)methanamine hydrochloride], the MIC in assay [1] came to 0.47 µM. For the same compound, the IC50 in assay [2] is 0.244 µM; in assay [3] (setting [9]), over 50 µM.

For the compound `Cl.NCC1OB2OCCOc3ccc(Cl)c1c32` (racemic) [Example 3], the MIC in assay [4], in assay [5], in assay [6] and in assay [7] was over 64 µg/mL throughout. In addition, the “Selectivity Index (A/B)” value in assay [1] (listed as EXAMPLE 3 G3-Br, hydrochloride) was over 106; in assay [1] (listed as Example 3 G3-CI, hydrochloride) it was over 106.

For the compound `C[C@@]1(CO)COc2ccc(Cl)c3c2B(OC3CN)O1` (single isomer, unassigned) [Example 14, ((2S,8R or 2R,8S)-2-(aminomethyl)-3-chloro-8-methyl-7,8-dihydro-2H-1,6,9-trioxa-9a-borabenzo[cd]azulen-8-yl)methanol], in assay [1], the “Selectivity Index (A/B)” value was over 4 and the MIC stood at 1.25 µM (≈ 0.354 µg/mL). In addition, in assay [2], the IC50 turned out to be 4.17 µM. Further, in assay [3] (setting [9]), the IC50 is over 50 µM.

`Cl.NCC1OB2OCCOc3ccc(F)c1c32` (centres unmarked) [Example 5, (3-fluoro-7,8-dihydro-2H-1,6,9-trioxa-9a-borabenzo[cd]azulen-2-yl)methanamine hydrochloride)]: the MIC in assay [1] stood at 0.6 µM. In addition, the IC50 in assay [2] came out at 0.46 µM; in assay [3] (setting [9]), 49.1 µM.

For `Cl.NCC1OB2OCCOc3ccc(F)c1c32` (centres unmarked) [Example 5], the MIC was 4 µg/mL in assay [4], 32 µg/mL in assay [5], 64 µg/mL in assay [6] and over 64 µg/mL in assay [7].

As to `NC[C@H]1OB2OCCOc3ccc(I)c1c32` [Example 6, (S)-(3-iodo-7,8-dihydro-2H-1,6,9-trioxa-9a-borabenzo[cd]azulen-2-yl)methanamine hydrochloride], the MIC in assay [1] stood at 0.3 µM. The IC50 in assay [2] was 0.33 µM; in assay [3] (setting [9]), 36.4 µM.

As for `CC1COc2ccc(Cl)c3c2B(O1)OC3CN.Cl` (centres unmarked) [Example 7, (3-chloro-8-methyl-7,8-dihydro-2H-1,6,9-trioxa-9a-borabenzo[cd]azulen-2-yl)methanamine hydrochloride], the results for the IC50 in assay [8], in assay [2] and in assay [3] (setting [9]) were over 300 µM, 1.08 µM and over 50 µM, respectively. Besides, the MIC in assay [4] was over 64 µg/mL; in assay [5] it was over 64 µg/mL; in assay [6], over 64 µg/mL; in assay [7], over 64 µg/mL; in assay [1], 0.2 µM. Moreover, the “Selectivity Index (A/B)” value in assay [1] is reported as over 250.

Take `Cl.NC[C@H]1OB2O[C@H](CO)COc3ccc(F)c1c32` [Example 13, ((2S,8R)-2-(aminomethyl)-3-fluoro-7,8-dihydro-2H-1,6,9-trioxa-9a-borabenzo[cd]azulen-8-yl)methanol hydrochloride]: the “Selectivity Index (A/B)” value in assay [1] is given as over 10. Besides, in assay [1], the MIC came to 0.55 µM. Besides, the values for the IC50 in assay [2] and in assay [3] (setting [9]) were 0.48 µM and over 50 µM, respectively.

As for `C[C@]1(CO)COc2ccc(Cl)c3c2B(OC3CN)O1` (stereo partly drawn) [Example 15, ((2S,8S, or 2R,8R)-2-(aminomethyl)-3-chloro-8-methyl-7,8-dihydro-2H-1,6,9-trioxa-9a-borabenzo[cd]azulen-8-yl)methanol], in assay [1], the “Selectivity Index (A/B)” value is reported as over 50 and the MIC amounted to 0.93 µM (≈ 0.264 µg/mL). Further, the IC50 in assay [2] worked out at 3.13 µM. The IC50 in assay [3] (setting [9]) was over 50 µM.

In the case of `C[C@@]1(CO)COc2ccc(Br)c3c2B(OC3CN)O1` (stereo partly drawn) [Example 16, ((2S,8R, or 2R,8S)-2-(aminomethyl)-3-bromo-8-methyl-7,8-dihydro-2H-1,6,9-trioxa-9a-borabenzo[cd]azulen-8-yl)methanol], in assay [1], the “Selectivity Index (A/B)” value is over 40 and the MIC came to 1.25 µM (≈ 0.41 µg/mL). Besides, the IC50 in assay [2] is 2.69 µM. Further, the IC50 in assay [3] (setting [9]) was over 50 µM.

Take `C[C@]1(CO)COc2ccc(Br)c3c2B(O[C@@H]3CN)O1` [Example 17, ((2S,8S, or 2R,8R)-2-(aminomethyl)-3-bromo-8-methyl-7,8-dihydro-2H-1,6,9-trioxa-9a-borabenzo[cd]azulen-8-yl)methanol]: in assay [1], the “Selectivity Index (A/B)” value was over 50 and the MIC was 0.925 µM (≈ 0.303 µg/mL). The IC50 in assay [2] was 1.97 µM. The IC50 in assay [3] (setting [9]) is over 50 µM.

For `c1cc2c3c(c1)OCCOB3OC2` [Example C1-H, reference compound], the IC50 turned out to be 101 µM in assay [8] and 12.2 µM in assay [2].

Regarding `NCCOc1cccc2c1B(O)OC2` [Example C3-H, reference compound], the IC50 is 35.7 µM in assay [8]; 17.6 µM in assay [2]; over 50 µM in assay [3] (Homo sapiens, HepG2, 48 h; read-out: HepG2 cell 48 h Tox50 (A)). Further, in assay [1], the “Selectivity Index (A/B)” value is over 0.8.

`CC1COc2c(Cl)cc(Cl)c3c2B(O1)OC3CN` (centres unmarked) [Example C7-Cl2, reference compound]: the “Selectivity Index (A/B)” value in assay [1] is recorded as over 20. Moreover, the figures for the IC50 in assay [2] and in assay [3] (setting [9]) were 7.97 µM and over 50 µM, respectively.

Turning to `CC1(C)COc2c(Cl)ccc3c2B(OC3CN)O1` (centres unmarked) [Example C8-Cl, reference compound], in assay [1], the “Selectivity Index (A/B)” value worked out at 10 and the MIC is over 5 µM. Besides, the IC50 in assay [2] was 6.05 µM. Further, the IC50 in assay [3] (setting [9]) was over 50 µM.

`CC1(C)COB2OC(CN)c3c(Cl)ccc(c32)O1` (centres unmarked) [Example C9-Cl, reference compound]: the “Selectivity Index (A/B)” value is given as over 10 in assay [1] and 10 in assay [1] (listed as C9-CI). Besides, the IC50 is 37.6 µM in assay [2] and over 50 µM in assay [3] (setting [9]).

For the compound `CC1(C)COB2OC(CN)c3cccc(c32)O1` (centres unmarked) [Example C10-H, reference compound], in assay [1], the MIC is over 5 µM. Besides, the IC50 was over 300 µM in assay [2] and over 50 µM in assay [3] (setting [9]).

`CC1COc2cccc3c2B(O1)OC3CN` (centres unmarked) [Example C11-H, reference compound]: the MIC in assay [4] came to 2 µg/mL (≈ 9.13 µM); in assay [5], 2 µg/mL (≈ 9.13 µM); in assay [6], 2 µg/mL (≈ 9.13 µM); in assay [7] it was 4 µg/mL (≈ 18.3 µM). Besides, the “Selectivity Index (A/B)” value in assay [1] was over 32. Moreover, the values for the IC50 in assay [2] and in assay [3] (setting [9]) were 0.51 µM and over 50 µM, respectively.

As to `CC1(C)COc2cccc3c2B(OC3CN)O1` (centres unmarked) [Example C12-H, reference compound], the MIC in assay [4] is 16 µg/mL (≈ 68.6 µM); in assay [5], 4 µg/mL (≈ 17.2 µM); in assay [6], 2 µg/mL (≈ 8.58 µM); in assay [7], 4 µg/mL (≈ 17.2 µM); in assay [1] it was over 5 µM. In assay [1], the “Selectivity Index (A/B)” value is reported as over 4.9. For the same compound, the IC50 in assay [2] was 1.33 µM; in assay [3] (setting [9]) it was 24.5 µM.

With `NC[C@H]1OB2OCCOc3c(Cl)ccc1c32` [Example C13-Cl, reference compound], the “Selectivity Index (A/B)” value in assay [1] is over 10. The IC50 in assay [3] (setting [9]) was over 50 µM.

On to `NC[C@H]1OB2OCCOc3c(Cl)cc(Cl)c1c32` [Example C14-Cl2, reference compound], for which, in assay [1], the “Selectivity Index (A/B)” value is on record as over 10 and the MIC is over 5 µM. In addition, the IC50 in assay [2] is 4.67 µM. The IC50 in assay [3] (setting [9]) was over 50 µM.
